Format in all cases: cell-based
One experiment has as its system Pyricularia oryzae. The experiment can be described thus: microbe, parasite or virus in culture. The conditions noted are these: for Observed efficacy: solo product.
The test system of a further experiment is Septoria tritici. As to the kind of experiment: Microtest against leaf blotch on wheat caused by Septoria tritici (Septtr). The conditions noted are these: solo product.
The next experiment concerns Leptosphaeria nodorum. As to the kind of experiment: Microtest against wheat leaf spots caused by Leptosphaeria nodorum (Leptno). The conditions noted are these: solo product.
A further experiment has as its system Alternaria solani. The experiment can be described thus: Microtest against early blight caused by Alternaria solani (Alteso). The following applies: solo product; for inhibition of growth at […]: 0.063 ppm.
The next experiment deals with Botrytis cinerea. As to the kind of experiment: Microtiterplate test against the grey mold Botrytis cinerea (Botrci). The conditions noted are these: solo product.
A further experiment concerns Phytophthora infestans. As to the kind of experiment: microbe, parasite or virus in culture. The following applies: for Observed efficacy: solo product.
The mark [1] stands for this setting: Zymoseptoria tritici, 168 h, read-out: Observed efficacy.
The mark [2] stands for this setting: Botrytis cinerea, 168 h, 0.016 ppm, read-out: Observed efficacy.
Setting [3] is: Botrytis cinerea, 168 h, 0.063 ppm, read-out: Observed efficacy.
The mark [4] stands for this setting: Alternaria solani, 168 h, 0.001 ppm, read-out: Observed efficacy.
The mark [5] stands for this setting: Alternaria solani, 168 h, 0.004 ppm, read-out: Observed efficacy.
Setting [6] is: Alternaria solani, 168 h, 0.016 ppm, read-out: Observed efficacy.
The mark [7] stands for this setting: Alternaria solani, 168 h, read-out: Observed efficacy.
The mark [8] stands for this setting: Pyricularia oryzae, 168 h, read-out: Observed efficacy.
Where [9] appears, read: Parastagonospora nodorum, 168 h, read-out: Observed efficacy.
Setting [10] is: Parastagonospora nodorum, 168 h, 0.016 ppm, read-out: Observed efficacy.
[11] abbreviates: Botrytis cinerea, 168 h, 0.25 ppm, read-out: Observed efficacy.
The mark [12] stands for this setting: Botrytis cinerea, 168 h, read-out: Observed efficacy.
Where [13] appears, read: Botrytis cinerea, 168 h, 4 ppm, read-out: Observed efficacy.
The mark [14] stands for this setting: Botrytis cinerea, 168 h, 16 ppm, read-out: Observed efficacy.
Setting [15] is: Alternaria solani, 168 h, 4 ppm, read-out: Observed efficacy.
Setting [16] is: Alternaria solani, 168 h, 16 ppm, read-out: Observed efficacy.
Where [17] appears, read: Alternaria solani, 168 h, 63 ppm, read-out: Observed efficacy.
The mark [18] stands for this setting: Phytophthora infestans, 168 h, read-out: Observed efficacy.

The structures appear in SMILES notation. Read-outs that look alike come from different tables or passages of the source.

With `CC1COC(Cn2cncn2)(c2ccc(Oc3ccc(Cl)cc3)cc2Cl)O1` (centres unmarked) [Difenoconazol], the Observed efficacy stood at 11 in the experiment with Pyricularia oryzae (1 ppm); 26 with Septoria tritici (0.016 ppm); 29 in the experiment with Leptosphaeria nodorum (0.016 ppm); 5 with Alternaria solani (0.004 ppm); 5 with Alternaria solani (0.016 ppm).
`Fc1ccc([C@]2(Cn3cncn3)O[C@H]2c2ccccc2Cl)cc1` [Epoxiconazol]: the Observed efficacy was found to be 16 with Septoria tritici (0.016 ppm), 11 with Botrytis cinerea (0.016 ppm), 5 with Alternaria solani (0.004 ppm) and 8 in the experiment with Alternaria solani (0.016 ppm).
Regarding `O=c1c2cc(F)ccc2nc(-n2cncn2)n1-c1ccc(Cl)cc1Cl` [Fluquinconazol], the Observed efficacy with Phytophthora infestans (4 ppm) is on record as 0.
On to `CC(C)C(O)(Cn1cncn1)c1ccc(Oc2ccc(Cl)cc2)cc1Cl` (centres unmarked) [I-19, 2-[2-chloro-4-(4-chlorophenoxy)phenyl]-3-methyl-1-(1,2,4-triazol-1-yl)butan-2-ol], for which the inhibition of growth at 1.6e-05 ppm in the experiment with Septoria tritici (Zymoseptoria tritici, 168 h, 0.000016 ppm, read-out: Observed efficacy) is 12%. The inhibition of growth at 0.001 ppm came to 20% in the experiment on Septoria tritici (setting [1]) and 1% with Alternaria solani (setting [4]). Moreover, the inhibition of growth at 6.3e-05 ppm with Septoria tritici (setting [1]) amounted to 13%. For the same compound, the inhibition of growth at […] was found to be 64% in the experiment on Leptosphaeria nodorum (Parastagonospora nodorum, 168 h, 0.25 ppm, read-out: Observed efficacy); 29% in the experiment on Botrytis cinerea (setting [3]); 25% with Alternaria solani (setting [7]). Moreover, the inhibition of growth at 0.016 ppm was 20% in the experiment on Botrytis cinerea (setting [2]) and 0% in the experiment with Alternaria solani (setting [6]). Besides, the inhibition of growth at 0.004 ppm with Alternaria solani (setting [5]) is 0%.
On to `COC(C)(Cn1cncn1)c1ccc(Oc2ccc(Cl)cc2)cc1Cl` (centres unmarked) [I-20, 1-[2-[2-chloro-4-(4-chlorophenoxy)phenyl]-2-methoxy-propyl]-1,2,4-triazole], for which the figures for the inhibition of growth at 0.016 ppm in the experiment on Pyricularia oryzae (setting [8]) and with Leptosphaeria nodorum (setting [10]) were 0% and 14%, respectively. In addition, the inhibition of growth at 0.001 ppm in the experiment with Septoria tritici (setting [1]) and in the experiment on Leptosphaeria nodorum (setting [9]) was 5% throughout. The inhibition of growth at 0.004 ppm in the experiment on Leptosphaeria nodorum (setting [9]) amounted to 10%; in the experiment with Alternaria solani (setting [5]), 0%. The results for the inhibition of growth at […] in the experiment on Botrytis cinerea (setting [3]), with Botrytis cinerea (setting [11]) and with Alternaria solani (setting [7]) were 16%, 16% and 30%, respectively. Moreover, in the experiment on Botrytis cinerea (setting [12]), the inhibition of growth at 1 ppm is 58%.
On to `COCC(O)(Cn1cncn1)c1ccc(Oc2ccc(Cl)cc2)cc1Cl` (centres unmarked) [I-26, 2-[2-chloro-4-(4-chlorophenoxy)phenyl]-1-methoxy-3-(1,2,4-triazol-1-yl)propan-2-ol], for which the results for the inhibition of growth at 0.016 ppm in the experiment with Pyricularia oryzae (setting [8]), with Leptosphaeria nodorum (setting [10]) and with Alternaria solani (setting [6]) were 0%, 24% and 4%, respectively. For the same compound, in the experiment on Pyricularia oryzae (setting [8]), the inhibition of growth at 1 ppm amounted to 55%. Besides, the inhibition of growth at 0.001 ppm with Septoria tritici (setting [1]) was 29%; in the experiment with Leptosphaeria nodorum (setting [9]) it was 9%; with Alternaria solani (setting [4]), 5%. In addition, the inhibition of growth at 6.3e-05 ppm in the experiment with Septoria tritici (setting [1]) turned out to be 19%. Further, the inhibition of growth at 0.004 ppm with Leptosphaeria nodorum (setting [9]) is 15%. The inhibition of growth at […] in the experiment with Botrytis cinerea (setting [3]) turned out to be 44%.
On to `CCCCCCCCc1c(CC)nc2ncnn2c1N` [II-1, ametoctradin, reference compound], for which the Observed efficacy with Phytophthora infestans (1 ppm) is 75; in the experiment with Botrytis cinerea (16 ppm), 3; with Botrytis cinerea (63 ppm), 4; in the experiment with Alternaria solani (4 ppm), 5; in the experiment on Alternaria solani (16 ppm), 2; in the experiment on Alternaria solani (63 ppm), 6.
As for `CCOC(=O)C1CC(=O)C(=C(O)C2CC2)C(=O)C1` (centres unmarked) [II-3a, trinexapac-ethyl, reference compound], the inhibition of growth at 4 ppm was found to be 5% with Pyricularia oryzae (setting [8]); 13% in the experiment on Septoria tritici (Zymoseptoria tritici, 168 h, 4 ppm, read-out: Observed efficacy); 7% in the experiment on Botrytis cinerea (setting [13]); 12% in the experiment on Alternaria solani (setting [15]). In addition, the inhibition of growth at 16 ppm in the experiment on Pyricularia oryzae (setting [8]) came to 21%; in the experiment with Botrytis cinerea (setting [14]), 5%; with Alternaria solani (setting [16]) it was 27%. Further, the inhibition of growth at 63 ppm in the experiment on Pyricularia oryzae (setting [8]) stood at 81%; in the experiment on Botrytis cinerea (Botrytis cinerea, 168 h, 63 ppm, read-out: Observed efficacy) it was 15%.
In the case of `Cn1cc(C(=O)Nc2ccc(F)cc2-c2ccc(Cl)c(Cl)c2)c(C(F)F)n1` [II-6, bixafen, reference compound], the Observed efficacy was 2 with Pyricularia oryzae (0.016 ppm), 8 in the experiment with Botrytis cinerea (0.016 ppm), 5 in the experiment on Alternaria solani (0.001 ppm) and 38 in the experiment with Alternaria solani (0.004 ppm).
With `O=C(Nc1ccccc1-c1ccc(Cl)cc1)c1cccnc1Cl` [II-7, boscalid, reference compound], the inhibition of growth at 16 ppm in the experiment on Pyricularia oryzae (setting [8]) is 2%. Besides, in the experiment with Leptosphaeria nodorum (Parastagonospora nodorum, 168 h, 4 ppm, read-out: Observed efficacy), the inhibition of growth at 4 ppm was determined as 23%. Further, the inhibition of growth at […] with Botrytis cinerea (setting [11]) was determined as 38%. Moreover, in the experiment on Alternaria solani (setting [4]), the inhibition of growth at 0.001 ppm is 5%. Besides, the inhibition of growth at 0.004 ppm in the experiment on Alternaria solani (setting [5]) was 6%.
For `COC(=O)Nc1nc2ccccc2[nH]1` [II-8, carbendazim, reference compound], the inhibition of growth at 16 ppm in the experiment with Septoria tritici (Zymoseptoria tritici, 168 h, 16 ppm, read-out: Observed efficacy) is 16%; in the experiment on Alternaria solani (setting [16]), 10%. Moreover, the inhibition of growth at 0.004 ppm in the experiment with Botrytis cinerea (Botrytis cinerea, 168 h, 0.004 ppm, read-out: Observed efficacy) came out at 5%. In the experiment on Botrytis cinerea (setting [2]), the inhibition of growth at 0.016 ppm amounted to 3%. Further, the inhibition of growth at 4 ppm in the experiment on Alternaria solani (setting [15]) turned out to be 7%. In addition, the inhibition of growth at 63 ppm in the experiment on Alternaria solani (setting [17]) worked out at 34%.
With `N#Cc1nn(-c2c(Cl)cc(C(F)(F)F)cc2Cl)c(N)c1[S+]([O-])C(F)(F)F` (centres unmarked) [II-20c, fipronil, reference compound], the inhibition of growth at 1 ppm amounted to 4% in the experiment on Phytophthora infestans (setting [18]) and 6% in the experiment with Alternaria solani (Alternaria solani, 168 h, 1 ppm, read-out: Observed efficacy). Besides, the inhibition of growth at 4 ppm was determined as 1% in the experiment on Pyricularia oryzae (setting [8]) and 2% in the experiment on Alternaria solani (setting [15]). Also, the inhibition of growth at 16 ppm with Pyricularia oryzae (setting [8]) worked out at 8%.
For the compound `N#Cc1c[nH]cc1-c1cccc2c1OC(F)(F)O2` [II-34, fludioxonil, reference compound], in the experiment on Pyricularia oryzae (setting [8]), the inhibition of growth at 0.016 ppm was 36%.
Consider `CO/N=C(/C1=NOCCO1)c1ccccc1Oc1ncnc(Oc2ccccc2Cl)c1F` [II-37, fluoxastrobin, reference compound], for which the inhibition of growth at 0.016 ppm in the experiment on Phytophthora infestans (setting [18]) is 4%; with Pyricularia oryzae (setting [8]), 8%; in the experiment on Alternaria solani (setting [6]) it was 11%. For the same compound, the inhibition of growth at 0.004 ppm with Pyricularia oryzae (setting [8]) turned out to be 3%. Moreover, in the experiment with Botrytis cinerea (setting [12]), the inhibition of growth at 1 ppm amounted to 5%. The inhibition of growth at 4 ppm in the experiment on Botrytis cinerea (setting [13]) is 10%. The inhibition of growth at 16 ppm in the experiment with Botrytis cinerea (setting [14]) came out at 23%. Moreover, in the experiment on Alternaria solani (setting [7]), the inhibition of growth at […] came out at 27%.
Compound `Cn1cc(C(=O)Nc2ccccc2-c2cc(F)c(F)c(F)c2)c(C(F)F)n1` [II-42, fluxapyroxad, reference compound] yielded an Observed efficacy in the experiment on Alternaria solani (0.001 ppm) of 4.
On to `Cc1ccc(C(C)NC(=O)[C@@H](NC(=O)OC(C)C)C(C)C)cc1` (some centres unmarked) [II-51, iprovalicarb, reference compound], for which the Observed efficacy with Pyricularia oryzae (4 ppm) is listed as 0; with Leptosphaeria nodorum (16 ppm), 19; in the experiment on Botrytis cinerea (4 ppm), 2; in the experiment with Botrytis cinerea (16 ppm), 3; with Botrytis cinerea (63 ppm), 6; in the experiment on Alternaria solani (4 ppm) it was 1. The Observed efficacy is 2 in the experiment with Alternaria solani (16 ppm) and 1 in the experiment with Alternaria solani (63 ppm).
Turning to `CON=C(C(=O)OC)c1ccccc1CON=C(C)c1cccc(C(F)(F)F)c1` [II-92, trifloxystrobin, reference compound], the values for the inhibition of growth at 0.004 ppm in the experiment on Pyricularia oryzae (setting [8]) and with Alternaria solani (setting [5]) were 11% and 7%, respectively. Moreover, the inhibition of growth at 0.016 ppm in the experiment with Pyricularia oryzae (setting [8]) came out at 26%; in the experiment with Alternaria solani (setting [6]) it was 11%. Moreover, the inhibition of growth at […] in the experiment with Leptosphaeria nodorum (Parastagonospora nodorum, 168 h, 0.063 ppm, read-out: Observed efficacy) amounted to 39%. In addition, in the experiment with Botrytis cinerea (setting [13]), the inhibition of growth at 4 ppm turned out to be 2%. Also, the inhibition of growth at 16 ppm in the experiment on Botrytis cinerea (setting [14]) stood at 6%.
In the case of `CCN(Cc1ccc(Cl)nc1)/C(=C/[N+](=O)[O-])NC` [Nitenpyram], the inhibition of growth at 4 ppm was 1% in the experiment on Pyricularia oryzae (setting [8]) and 2% in the experiment on Alternaria solani (setting [15]). For the same compound, the inhibition of growth at 16 ppm with Pyricularia oryzae (setting [8]) was 0%; in the experiment on Alternaria solani (setting [16]), 2%. Also, the inhibition of growth at 63 ppm in the experiment with Pyricularia oryzae (setting [8]) came to 3%; with Septoria tritici (Zymoseptoria tritici, 168 h, 63 ppm, read-out: Observed efficacy), 10%; with Leptosphaeria nodorum (Parastagonospora nodorum, 168 h, 63 ppm, read-out: Observed efficacy) it was 23%; in the experiment with Alternaria solani (setting [17]), 8%.
On to `CCC(=O)C1=C([O-])CC(C(=O)[O-])CC1=O.[Ca+2]` (centres unmarked) [Prohexadion-ca], for which the Observed efficacy in the experiment with Pyricularia oryzae (4 ppm) was 2; with Pyricularia oryzae (16 ppm) it was 2; with Pyricularia oryzae (63 ppm), 3; in the experiment with Septoria tritici (63 ppm), 15; with Botrytis cinerea (4 ppm), 10; with Botrytis cinerea (16 ppm), 5. Besides, the Observed efficacy with Botrytis cinerea (63 ppm) is reported as 4; with Alternaria solani (4 ppm), 6; in the experiment on Alternaria solani (16 ppm), 2.
For `CC1(C)CC/C(=C\c2ccc(Cl)cc2)C1(O)Cn1cncn1` (centres unmarked) [Triticonazol], the Observed efficacy was 1 with Pyricularia oryzae (1 ppm) and 59 in the experiment on Pyricularia oryzae (4 ppm).

The record behind these values is patent US20150313225A1.
